# pIC50: −log10 of the molar value.
# Tests used:
# [1] = test system: prenylation of Ras, RAP1A and HDJ2 (FTase, GGTase I); assay: Protein prenylation immunoblot (FTase and GGTase I activities) in MCF-7 cells; assay type: cell-based, human; conditions: MCF7 cells, 3, 10 and 30 μM, 24 h
# Description: It was first verified if ECO-4601 interferes with Ras processing by monitoring FTase and GGTase I activities by immunoblot analysis. For these experiments, exponentially growing MCF-7 (human breast tumor) cells were seeded in 60 mm cell culture dishes at a density of 2.5×10^6 cells per dish. After an 18 h incubation period, ECO-4601 or lovastatin (Sigma-Aldrich, St. Louis, Mo.) were added at a final concentration of 3, 10 and 30 μM for 24 h. Cells were also treated with the vehicle alone (0.05% DMSO) for the same incubation periods. Treated and control cells were lysed in ice-cold RIPA buffer (50 mM Tris-HCl pH 7.4, 1% Triton X-100, 1% deoxycholate, 0.1% SDS, 150 mM NaCl, and 1 mM EDTA) containing protease inhibitors (Roche, Mannheim, Germany) and phosphatase inhibitors (EMD Biosciences, Calbiochem, San Diego, Calif.) for 20 minutes on ice. After lysis, cell debris was removed by centrifugation at 12000×g for 10 min. […] Bound antibodies were detected using horseradish peroxidase-conjugated secondary antibodies (Jackson ImmunoResearch Laboratories Inc., West Grove, Pa.) for 1 h at room temperature in 0.5% skim milk-TBS, visualized by treating the membranes with enhanced chemiluminescence reagents (Millipore, Mississauga, ON, Canada) and exposing them to BioMax Light Films (Kodak, Mississauga, ON, Canada). […]
# [2] = test system: MES-SA/DX5 (doxorubicin-resistant P-glycoprotein over-expressing variant); assay: Growth inhibitory MTT assay, MES-SA/DX5; assay type: cell-based, human; conditions: 72 hours, treated over control
# Description: (§1) Growth inhibitory activity of ECO-4601 (Compound 1) and other dibenzodiazepinone analogs was evaluated on a panel of 4 human tumor cell lines: the human uterine sarcoma MES-SA and its doxorubicin-resistant P-glycoprotein over-expressing variant, MES-SA/DX5 as well as non-aggressive and highly aggressive human breast cell lines, MCF-7 and MDA-MB-231, respectively. These four cell lines were obtained from the American Type Culture Collection (Manassas, Va.) and cultured in RPMI plus 10% fetal bovine serum (FBS) and maintained at 37° C. with 5% CO2.
# (§2) Exponentially growing cells (5,000 cells per well time; cell number determined with a hemocytometer) were seeded in 96-well flat-bottom plates and allowed to grow overnight. Cells were then incubated for 72 hours with three different concentrations of ECO-4601 or analogs: 30,10, and 3 μM. The in vitro growth inhibitory activity was determined by a commercial MTT assay. All measurements were done in quadruplicate and each experiment was performed 2-3 times. The lower the value, the more cytotoxic is the compound.
# [3] = test system: human uterine sarcoma MES-SA; assay: Growth inhibitory MTT assay, MES-SA; assay type: cell-based; conditions: 72 hours, treated over control
# Description: as §1, §2
# [4] = test system: human breast cell line MCF-7; assay: Growth inhibitory MTT assay, MCF-7; assay type: cell-based; conditions: 72 hours, treated over control
# Description: as §1, §2
# [5] = test system: human breast cell line MDA-MB-231; assay: Growth inhibitory MTT assay, MDA-MB-231; assay type: cell-based; conditions: 72 hours, treated over control
# Description: as §1, §2
# [6] = target: T1, peripheral benzodiazepine receptor (PBR) (Rattus norvegicus, UniProt P16257); assay: In-house PBR binding assay ([3H]PK11195, rat heart mitochondrial membranes); conditions: in-house radioligand-binding assay
# T1 construct: CBR and PBR were obtained from rat brain and heart membrane-fractions, respectively; from tissue; host or cells: Wistar rat heart membranes
# PBR = target: T2, PBR (Rattus norvegicus, UniProt P16257); assay: In vivo PBR occupancy by PET (11C-(R)-PK11195) following IP administration; conditions: 30 mg/kg IP
# T2 construct: from tissue; host or cells: orthotopic rat C6 glioma in Sprague-Dawley rats, in vivo
# Description: (R)-1-(2-chlorophenyl)-N-methyl-N-(1-methyl-propyl)-3-isoquinoline carboxamide (R N-desmethyl PK11195), the precursor for the radioisotope-labeled (R) —PK11195, was purchased from ABX (Radeburg, Germany). The synthesis of ^11C-(R)-PK11195 was accomplished by a modification of the method of Camsonne et al. (J. Label. Compd. Radiopharm., 21: 985-991,1984). Briefly, ^11C-methyl iodide (^11C—CH3I) was transferred by a stream of nitrogen gas at a flow rate of 10 ml/min into a reaction medium containing 1 mg or R—N-desmethyl PK11195 previously dissolved in 0.5 mL of dimethylsulfoxide (DMSO) and about 20 mg of sodium hydroxide. The reaction was initiated at room temperature, with a bubbling of the ^11C—CH3I being continued over a 5 minute period. After bubbling was complete, the reaction mixture was left standing for 5 minutes. Purification was performed by high pressure liquid chromatography (HPLC) using a reverse-phase C18 column and a methanol:ammonium formate (20 mM) (80:20) mixture and a mobile phase at a flow rate of 3 mL/min. ^11C—(R) —PK11195 was eluted at 11 minutes and obtained with a specific radioactivity of […].
# In vivo PET studies were performed 14 days post tumor implantation. […] Attenuation correction factors, for each rat (total of 7 animals), were determined using a 10 min ^57Co transmission scan acquired immediately prior to the dynamic scan. […]
# SRBC = assay: Hemolysis of SRBC; assay type: cell-based; conditions: concentration necessary to achieve 50% hemolysis of SRBC
# [7] = test system: PC-3 (prostate adenocarcinoma); assay: In vitro cytotoxic activity (GI50, propidium iodide), PC-3; assay type: cell-based, human; conditions: method (2)
# Description: (§3) Procedures used for each series of tests are described below.
# (§4) Compounds were dissolved at 10 mM in DMSO. […] The following day, propidium iodide was added to one of the two plates and fluorescence measured (Tz). […] Each compound was tested at each concentration and in triplicates. The equivalent cell number was determined after adding propidium iodide by measuring the signal by fluorescence (C for control).
# [8] = test system: HT-29 (colorectal carcinoma); assay: In vitro cytotoxic activity (GI50, propidium iodide), HT-29; assay type: cell-based; conditions: method (2), 96 hrs
# Description: as §3, §4
# SF268 (CNS) = assay: In vitro cytotoxic activity (GI50, propidium iodide), SF-268; assay type: cell-based; conditions: method (2), 96 hrs
# Description: as §3, §4
# [9] = test system: MDA-MB-231 (mammary gland adenocarcinoma); assay: In vitro cytotoxic activity (GI50, propidium iodide), MDA-MB-231; assay type: cell-based, human; conditions: method (2), 96 hrs
# Description: as §3, §4
compound,measurement,setting,value
"CC[C@H](C)C(=O)O[C@H]1C[C@@H](C)C=C2C=C[C@H](C)[C@H](CC[C@@H]3C[C@@H](O)CC(=O)O3)[C@H]21 [lovostatin, lovastatin, reference compound]","effect on protein prenylation (mobility shift of Ras, RAP1A and HDJ2)",[1],expected mobility shift
CC(C)=CCC/C(C)=C/CC/C(C)=C/CN1C(=O)c2cccc(O)c2Nc2c1cc(O)c(C1CCCO1)c2O (stereo not shown) [Compound 100],% T/C at 10 μM,[2],86%
same,% T/C at 10 μM,[3],18%
same,% T/C at 10 μM,[4],38%
same,% T/C at 10 μM,[5],43%
same,pIC50,[6],8.00
"10-farnesyl-4,6,8-trihydroxy-5,10-dihydrodibenzo[b,e][1,4]diazepin-11-one [Compound 1]","reduction of PBR occupancy for 11C-(R)-PK11195 binding, average",PBR,31%
"CCN1c2c(O)cccc2C(=O)N(CC=C(C)CCCC(C)(CCCC(C)(C)OC)OC)c2cc(O)cc(O)c21 (stereo not shown) [Compound 87, 10-(7,11-dimethoxy-3,7,11-trimethyl-2-dodecenyl)-4,6,8-trihydroxy-5-ethyl-5,10-dihydro-dibenzo[b,e][1,4]diazepin-11-one]",Hemolysis (ED50 μg/mL),SRBC,>64 µg/mL
"COC(C)(CCC=C(C)C)CCC/C(C)=C/CN1C(=O)c2cccc(O)c2N(C)c2c(O)cc(O)cc21 (stereo not shown) [Compound 80, 10-(7-methoxy-3,7,11-trimethyldodeca-2,10-dienyl)-4,6,8-trihydroxy-5-methyl-5,10-dihydro-dibenzo[b,e][1,4]diazepin-11-one]",Hemolysis (ED50 μg/mL),SRBC,>64 µg/mL
CC(C)=CCC/C(C)=C/CC/C(C)=C/CN1C(=O)c2cccc(O)c2N(C)c2c1cc(O)c(Br)c2O [Compound 99],pIC50,[6],8.00
COC(C)(CCC=C(C)C)CCC/C(C)=C/CN1C(=O)c2cccc(O)c2Nc2c(O)cc(O)cc21 (stereo not shown) [Compound 83],GI50,[7]; 96 hrs,13.2 µM
same,Hemolysis (ED50 μg/mL),SRBC,12.4 µg/mL
same,GI50,[8],19.6 µM
same,GI50,SF268 (CNS),9.74 µM
same,GI50,[9],6.71 µM
C/C(=C\CN1C(=O)c2cccc(O)c2Nc2c(O)cc(O)cc21)CC/C=C(\C)CCC1OC1(C)C (stereo not shown) [Compound 18],GI50,"[7]; Homo sapiens, 96 h",> 30 µM
same,Hemolysis (ED50 μg/mL),SRBC,>64 µg/mL
"CCN1c2c(O)cccc2C(=O)N(C/C=C(\C)CC/C=C(\C)CCC=C(C)C)c2cc(O)cc(O)c21 [Compound 14, 10-farnesyl-4,6,8-trihydroxy-5-ethyl-5,10-dihydro-dibenzo[b,e][1,4]diazepin-11-one]",Hemolysis (ED50 μg/mL),SRBC,43.9 µg/mL
"CC(C)=CCCC1(C)OC1CC/C(C)=C/CN1C(=O)c2cccc(O)c2Nc2c(O)cc(O)cc21 (stereo not shown) [Compound 17, 10-(3,7,11-trimethyl-6,7-epoxydodeca-2,10-dienyl)-4,6,8-trihydroxy-5,10-dihydro-dibenzo[b,e][1,4]diazepin-11-one]",Hemolysis (ED50 μg/mL),SRBC,35.0 µg/mL

# Reference: patent US20090062255A1, “TUMOR-TARGETING EVALUATION METHODOLOGY AND COMPOUNDS RELATED THERETO” (THALLION PHARMACEUTICALS INC., priority 2007, published 2009)
